Reference: ChEMBL document CHEMBL5724562, “Toxicity screen in isolated B cell assay results for EUbOPEN Chemogenomics Library” (2024)
Non-standard residues stand in square brackets, D forms with d. Residues, ends and D or L forms follow the SMILES beside them.

tested on: B cell; experiment: Cytotoxicity screening of chemical probes in isolated B cell assay. Data is normalized to DMSO control, the cell viability average of replicates are reported. Reduction of ATP level more than 20% indicate compromised cell health status.; settings: human, 0.1 µM

Row | Structure (SMILES) | Cell Viability [%]
1 | O=S(=O)(NC1CCC(c2cc(F)ccc2F)(S(=O)(=O)c2ccc(Cl)cc2)CC1)C(F)(F)F (stereo not given) [MRK-560] | 103.093
2 | O=C(O)[C@H]1[C@H](Cn2nnc3ccccc3c2=O)CC[C@@H]1C(=O)c1ccc(OCCC2CCOCC2)cc1 [BAY-7598] | 98.8077
3 | CNC(=O)Nc1ccc2c(c1)CC[C@@]21OC(=O)N(CC(=O)N(Cc2ccc(F)cc2)[C@@H](C)C(F)(F)F)C1=O [A-485] | 92.4439
4 | CS(=O)(=O)N1CCCC(NC(=O)[C@H](CCC2CCCCC2)NC(=O)c2ccc(CNC(=O)c3cnc4ccccn34)cc2)C1 (stereo not given in full) [SR-302] | 99.1038
5 | CCCCN(CCCC)C(=O)CN1C[C@H](c2cc(OC)c3c(c2)OCO3)[C@@H](C(=O)O)[C@@H]1CC(C)(C)CCC.Cc1ccc(S(=O)(=O)O)cc1 | 100.019
6 | COc1cccc(CNC(=O)c2nc3scc(COCc4ccc(C(=O)O)cc4)c3c(=O)[nH]2)c1 [T-26c] | 102.037
7 | Cc1cc(Nc2nccc(C)n2)cc(-c2cnc([C@@]3(O)CC[C@H](C(=O)O)C(C)(C)C3)s2)c1 [MRL-SYKi] | 97.9587
8 | CCOC(=O)c1cc2cc(-c3cc(C(=O)NCc4ccc(C(=O)O)cc4)nn3C)ccc2[nH]1 [BI 4394] | 99.7292
9 | Cc1c[nH]c2nccc(Oc3c(F)cc(Nc4cc(Cl)nc(N)n4)cc3F)c12 [BAY-549] | 99.4175

same assay, conditions: human, 1 µM

Row | Structure (SMILES) | Cell Viability [%]
10 | COc1ccccc1C(=O)Nc1cc2c(cc1N1CCCC1)n(C)c(=O)n2C | 98.47
11 | O=C(Nc1cnc(Oc2ccc(F)cc2)nc1)N1CCc2ncccc2[C@@H]1c1ccc(F)cc1 [BAY-899] | 98.9586
12 | Cl.Cl.Cl.c1ccc(N2CCN(Cc3nc4ccccc4[nH]3)CC2)nc1 | 98.1024
13 | CCNC1(C(N)=O)CCN(c2ncnc3c2nc(-c2ccccc2Cl)n3-c2ccc(Cl)cc2)CC1 [OTENABANT] | 101.882
14 | CN(C)CCCOc1ccc(-c2cc(NCCCn3cccn3)nc(S(C)(=O)=O)n2)cc1 | 98.5143
15 | CC(C)N(CCCNC(=O)Nc1ccc(C(C)(C)C)cc1)C[C@H]1O[C@@H](n2cc(Br)c3c(N)ncnc32)[C@H](O)[C@@H]1O | 95.9292
16 | O=C(O)c1n[nH]c2c1C[C@H]1C[C@@H]21 | 98.0706
17 | CN1CCN(c2cnc3c(C4CCN(C(=O)c5ccc(OC(F)(F)F)cc5N)CC4)ncnc3c2)CC1 [BAY-885] | 96.4414
18 | O=C(/C=C/N1C[C@H]2C[C@@H]1CN2c1ccccn1)c1ccccc1O | 91.7355
19 | COc1cc2c(cc1NS(=O)(=O)c1ccc(Br)cc1C)n(C)c(=O)n2C | 96.0295
20 | Cc1cc2c(-c3ccco3)cnc(N[C@@H]3CCN(C)C[C@H]3C(=O)NC3CCCCC3)c2[nH]c1=O [GSK789] | 93.8199
21 | Cl.Cl.c1ccc([C@@H]2C[C@H]2NC2CCNCC2)cc1 | 93.3816
22 | CCOCCn1cc(C(=O)Nc2ccc(-n3nc(-c4cccnc4)cc3C(F)(F)F)cn2)ccc1=O [BI 1935] | 94.8333
23 | COc1ccc2c(O[C@@H]3C[C@H]4C(=O)N[C@]5(C(=O)O)CC5/C=C\CCCCC[C@H](NC(=O)OC5CCCC5)C(=O)N4C3)cc(-c3csc(NC(=O)C(C)C)n3)nc2c1C (stereo not given in full) [BI 1230] | 99.1645
24 | C[C@]12N[C@H](Cc3ccccc31)c1ccccc12 [DIZOCILPINE] | 102.296
25 | CNCc1ccccc1-c1csc([C@@H](C)Nc2nc(C)nc3cc(OC)c(OC)cc23)c1 [BAY-293] | 78.8725
26 | Cc1cc(Cn2cnc3c2C[C@@H](C(=O)O)N(C(=O)C(c2ccccc2)c2ccccc2)C3)ccc1N(C)C | 100.94
27 | CC(C)NC(=O)N1CC[C@H](NC2=Nc3cc(F)ccc3N(CC(F)F)c3ccc(Cl)cc32)C1 | 98.1837
28 | CCCS(=O)(=O)c1nc(NC2CC2)cc(-c2ccc3c(ccn3C3CC(C)(C)NC(C)(C)C3)c2)n1 | 24.107
29 | C=CC(=O)N1CCC[C@@H](n2nc(-c3ccc(Oc4ccccc4)cc3)c3c(N)ncnc32)C1 [IBRUTINIB] | 86.9807

Row | Structure (SMILES) | Cell Viability [%]
30 | COc1cc(-c2cn([C@H]3CCc4c(F)cccc4N(CC(F)(F)F)C3=O)nn2)ccc1-n1cnc(C)c1 | 98.1038
31 | CC(C)(O)c1cncc(-c2nc3ccc(F)cc3n2C2CC2)c1 [MSD-CYP11B2] | 100.571
32 | COc1cc(-c2cn(C)c(=O)c3cnccc23)c(OC)cc1CN(C)C | 95.7323
33 | Cc1ccc(Cn2nc(C(=O)N[C@@H]3C(C)(C)[C@@H]4CC[C@@]3(C)C4)cc2-c2ccc(Cl)c(C)c2)cc1 | 95.8945
34 | CCN(CC)S(=O)(=O)Nc1cccc(-c2ccc3c(NC(=O)C4CC4)n[nH]c3c2)c1 | 95.3727
35 | COc1cc(C(=O)N2CC[C@@H](O)[C@@H](N)C2)cc2nc(-c3cc4ccccc4n3CC3CC3)n(C)c12.Cl | 96.5784
36 | Cc1cn(-c2cc(NC(=O)c3ccc4c(c3)CN(c3cncnc3)C[C@@H]4C)cc(C(F)(F)F)c2)cn1 | 96.9111
37 | Cc1c(NC(=O)c2cc(C(N)=O)nc3cc(F)ccc23)c(C(F)(F)F)nn1Cc1ccc(C#N)cc1 [BAY-876] | 101.62
38 | CC1=C(C#N)C(c2ccc3[nH]nc(C)c3c2)C(C#N)=C(C)N1 [BAY-474] | 96.499
39 | CCCCN(Cc1ccccc1)C(=O)c1ccc(S(=O)(=O)Nc2ccccc2)cc1 | 99.9127
40 | c1cc(OCCCN2CCCCC2)ccc1CN1CCCCC1 [JNJ-5207852] | 101.482
41 | O=c1nc(-c2ccccn2)sc2ccccc12 [BTZO-1] | 96.3183
42 | CCCc1cc(C)[nH]c(=O)c1CNC(=O)c1cc(-c2ccnc(N3CCN(C)CC3)c2)cc2c1cnn2C(C)C | 92.8371
43 | COc1ccccc1C(=O)Nc1cc2c(cc1N1CCNCC1C)n(C)c(=O)n2C (stereo not given) | 98.4804
44 | COc1cc2c(NC3CCN(C(C)C)CC3)nc(N3CCC(F)(F)CC3)nc2cc1OCCCN1CCCC1 | 98.4898
45 | Cc1ccc2c(c1CCC(=O)O)CC[C@@H](NS(=O)(=O)c1ccc(Cl)cc1)C2 [TERUTROBAN] | 102.464
46 | CCNC(=O)c1cc2c(N3CCOCC3C)ccnc2[nH]1 (stereo not given) | 99.1799
47 | C[C@H](NC(=O)c1cnc2n1[C@](C)(Cc1ccc(C#N)cc1)C(=O)N2c1cc(Cl)c(F)c(Cl)c1)C(=O)NC1(c2ccccn2)CC1 [BI 1950] | 96.273
48 | CC(=O)c1cc(-c2cc(C(=O)NC3CC3)ccc2C)c2ncccn12 | 95.0596
49 | Cc1c(N2CCCC2)nc2ccc(Br)cc2c1C(=O)NC[C@H](CCC(=O)O)c1ccccc1Cl [BAY-6672] | 98.0293

Row | Structure (SMILES) | Cell Viability [%]
50 | CN(C)C(=O)/C(C#N)=C/c1ccc(-c2nc3cnc4[nH]ccc4c3n2C2CCCCC2)o1 | 89.3026
51 | CN1C[C@H](Nc2cnn(C)c(=O)c2Br)C[C@H](c2ccccc2)C1 | 94.5817
52 | Cc1[nH]cnc1CN1CCc2c(c3ccccc3n2C)C1=O [ALOSETRON] | 98.6661
53 | Cn1cc(-c2ccc3occ(-c4cccc(-c5ccncc5)c4)c3n2)cn1 | 101.775
54 | CNC(=O)c1cc(C(=O)NC2CC2)cn(Cc2ccccc2)c1=O [GSK620] | 102.307
55 | O=C(NCc1ccc(F)cc1)N1CCN2C(=O)OC(c3ccccc3)(c3ccccc3)C2C1 (stereo not given) | 104.95
56 | CC(=O)N1CCC(c2ccc(C(=O)NC(=N)N)cc2C(F)(F)F)CC1 [BI 9627] | 95.0864
57 | CN1CCN(C(=O)C(C)(C)c2ccc(C(=O)Nc3cn4cc(-c5ccncc5)ccc4n3)cc2)CC1 [T3-CLK] | 73.6988
58 | CCCOc1ccn2c(C(C)=O)cc(-c3ccccc3S(C)(=O)=O)c2c1 | 98.3118
59 | CN(C)C(=O)c1ccc(-c2cc(C(=O)N[C@@H]3CCc4ccccc43)no2)cc1O | 97.9607
60 | CC(C)C[C@@H]1NC(=O)[C@@H](C(C)C)NC(=O)[C@@H]2CCCN2C(=O)[C@@H](CC(=O)O)NC(=O)[C@@H](Cc2c[nH]c3ccccc23)NC1=O [BQ-123] (cyclo(L[dW][dD]P[dV])) | 98.787
61 | C[C@H](c1ccc(F)cc1)N(Cc1cccc(C(=O)O)c1)C(=O)c1cnc2ccccc2c1 [PF-05105679] | 99.1446
62 | Cl.O=C(O)c1cc(-c2ccc(C3CCNCC3)cc2)c2ccc(-c3ccc(C(F)(F)F)cc3)cc2c1 | 98.0873
63 | COCCn1c(C)c(C)s/c1=N\C(=O)C1C(C)(C)C1(C)C | 97.5131
64 | Cc1cnc(-c2cc(Cl)ccc2F)cc1-n1c(=O)n(CC(N)=O)c2cnccc21 [TP-008] | 103.993
65 | O=C(NCC(=O)N1CCCC1)Nc1ccc2cnccc2c1 | 100.263
66 | Cn1cnc2c(F)c(Nc3ccc(Br)cc3Cl)c(C(=O)NOCCO)cc21 [SELUMETINIB] | 92.6054
67 | c1ccc2oc(-c3csc(C4CCN(Cc5nc6ncccc6[nH]5)CC4)n3)cc2c1 | 83.0928
68 | CCc1ccccc1C(=O)Nc1n[nH]c2c(C)c(F)c(C3C(C#N)=C(C)N(C)C(C)=C3C#N)cc12 [BAY-3827] | 97.1659
69 | Nc1ncnc2c1ccn2[C@@H]1O[C@H]([C@H](O)c2ccccc2)[C@@H](O)[C@H]1O | 101.429

same assay, conditions: human, 2 µM

Row | Structure (SMILES) | Cell Viability [%]
70 | CS(=O)(=O)c1cc(C2(NC(=O)c3cncc4c3cnn4-c3ccc(F)cc3)CC2)ccn1 [BI 639667] | 99.2983
